Measured values taken from the CheMixHub ionic liquid set.

Test: xn = mol fraction of the nth substance listed

CC[n+]1ccn(C)c1.O=S(=O)([O-])O + O=C1O[C@H]([C@@H](O)CO)C(O)=C1O + O
viscosity [mPa·s], 100 kPa
Settings | 293.15 K | 298.15 K | 303.15 K | 308.15 K | 313.15 K | 318.15 K
x2 = 0, x1 = 0.0009002 | 1.05 | 0.94 | 0.84 | 0.76 | 0.69 | 0.65
x2 = 0, x1 = 0.001799 | 1.07 | 0.95 | 0.85 | 0.77 | 0.7 | 0.64
x2 = 0, x1 = 0.002696 | 1.08 | 0.96 | 0.86 | 0.78 | 0.71 | 0.64
x2 = 0.0002713, x1 = 0.0008999 | 1.05 | 0.95 | 0.84 | 0.76 | 0.7 | 0.65
x2 = 0.0002768, x1 = 0.001798 | 1.08 | 0.96 | 0.86 | 0.78 | 0.71 | 0.65
x2 = 0.000277, x1 = 0.002695 | 1.09 | 0.97 | 0.87 | 0.78 | 0.72 | 0.65
x2 = 0.0005469, x1 = 0.0008997 | 1.06 | 0.96 | 0.85 | 0.77 | 0.71 | 0.66
x2 = 0.0005489, x1 = 0.001798 | 1.08 | 0.96 | 0.87 | 0.78 | 0.72 | 0.66
x2 = 0.0005544, x1 = 0.002694 | 1.1 | 0.98 | 0.88 | 0.79 | 0.72 | 0.66
x2 = 0.0008183, x1 = 0.0008994 | 1.07 | 0.96 | 0.85 | 0.78 | 0.71 | 0.67
x2 = 0.0008262, x1 = 0.001797 | 1.09 | 0.97 | 0.87 | 0.79 | 0.72 | 0.66
x2 = 0.000834, x1 = 0.002693 | 1.1 | 0.98 | 0.88 | 0.8 | 0.73 | 0.67
x2 = 0.00109, x1 = 0.0008992 | 1.07 | 0.97 | 0.86 | 0.78 | 0.72 | 0.67
x2 = 0.0011, x1 = 0.001797 | 1.09 | 0.97 | 0.88 | 0.8 | 0.73 | 0.67
x2 = 0.00111, x1 = 0.002693 | 1.11 | 0.99 | 0.89 | 0.8 | 0.73 | 0.67
x2 = 0.001362, x1 = 0.000899 | 1.08 | 0.97 | 0.86 | 0.79 | 0.72 | 0.68
x2 = 0.001374, x1 = 0.001796 | 1.1 | 0.98 | 0.88 | 0.8 | 0.73 | 0.67
x2 = 0.00139, x1 = 0.002692 | 1.11 | 1 | 0.89 | 0.81 | 0.74 | 0.68
x2 = 0.001633, x1 = 0.0008987 | 1.09 | 0.98 | 0.87 | 0.79 | 0.73 | 0.68
x2 = 0.001648, x1 = 0.001796 | 1.11 | 0.98 | 0.89 | 0.81 | 0.74 | 0.68
x2 = 0.001666, x1 = 0.002691 | 1.12 | 1 | 0.9 | 0.81 | 0.75 | 0.68
x2 = 0.001906, x1 = 0.0008985 | 1.09 | 0.98 | 0.88 | 0.8 | 0.73 | 0.69
x2 = 0.001923, x1 = 0.001795 | 1.11 | 0.99 | 0.9 | 0.81 | 0.74 | 0.68
x2 = 0.001942, x1 = 0.00269 | 1.12 | 1.01 | 0.9 | 0.82 | 0.75 | 0.69

CCCCCC[n+]1ccn(C)c1.F[P-](F)(F)(F)(F)F + O
101 kPa, x2 = 0.22
Settings | electrical conductivity [S/m] | viscosity [mPa·s]
293.15 K | – | 269
295.15 K | 0.1 | –

CCCC[n+]1ccn(C)c1.O=S(=O)([N-]S(=O)(=O)C(F)(F)F)C(F)(F)F + CS(C)=O
100 kPa, x2 = 0
Settings | viscosity [mPa·s]
303.15 K | 40.54
318.15 K | 23.75
